In data set [1] the target is Fibroblast growth factor receptor 4 (Homo sapiens, UniProt P22455). The experiment in a line: Inhibition of recombinant human N-terminal His-tagged FGFR4 cytoplasmic domain […] expressed in baculovirus expression system using tyr 04 peptide as substrate measured within 90 mins by Z-LYTE assay.
Data set [2] deals with Fibroblast growth factor receptor 1 (Homo sapiens, UniProt P11362). The experiment in a line: Inhibition of recombinant human His-tagged FGFR1 cytoplasmic domain (308 to 731 residues) expressed in baculovirus expression system using tyr 04 as substrate measured within 60 mins by Z-LYTE assay.
Data set [3] can be described thus: Stability in mouse plasma assessed as compound remaining at 2 uM measured after 2 hrs by LC-MS/MS analysis. In kind it is ADME, cell-free. As to conditions: read-out: Stability.
Data set [4] in a line: Intrinsic clearance in mouse liver microsomes at 1 uM measured after 60 mins in presence of NADPH by LC-MS/MS analysis. In kind it is ADME, microsome. As to conditions: read-out: CLH.
A short description of data set [5]: Stability in human plasma assessed as compound remaining at 2 uM measured after 2 hrs by LC-MS/MS analysis. In kind it is ADME, cell-free. The settings on record: read-out: Stability.
Data set [6] is described as follows: Intrinsic clearance in human liver microsomes at 1 uM measured after 60 mins in presence of NADPH by LC-MS/MS analysis. The settings on record: read-out: CLH. The format is ADME, microsome.

The structures appear in SMILES notation.

Sequence of Fibroblast growth factor receptor 1 (P11362 whole entry, the tested form may be a part): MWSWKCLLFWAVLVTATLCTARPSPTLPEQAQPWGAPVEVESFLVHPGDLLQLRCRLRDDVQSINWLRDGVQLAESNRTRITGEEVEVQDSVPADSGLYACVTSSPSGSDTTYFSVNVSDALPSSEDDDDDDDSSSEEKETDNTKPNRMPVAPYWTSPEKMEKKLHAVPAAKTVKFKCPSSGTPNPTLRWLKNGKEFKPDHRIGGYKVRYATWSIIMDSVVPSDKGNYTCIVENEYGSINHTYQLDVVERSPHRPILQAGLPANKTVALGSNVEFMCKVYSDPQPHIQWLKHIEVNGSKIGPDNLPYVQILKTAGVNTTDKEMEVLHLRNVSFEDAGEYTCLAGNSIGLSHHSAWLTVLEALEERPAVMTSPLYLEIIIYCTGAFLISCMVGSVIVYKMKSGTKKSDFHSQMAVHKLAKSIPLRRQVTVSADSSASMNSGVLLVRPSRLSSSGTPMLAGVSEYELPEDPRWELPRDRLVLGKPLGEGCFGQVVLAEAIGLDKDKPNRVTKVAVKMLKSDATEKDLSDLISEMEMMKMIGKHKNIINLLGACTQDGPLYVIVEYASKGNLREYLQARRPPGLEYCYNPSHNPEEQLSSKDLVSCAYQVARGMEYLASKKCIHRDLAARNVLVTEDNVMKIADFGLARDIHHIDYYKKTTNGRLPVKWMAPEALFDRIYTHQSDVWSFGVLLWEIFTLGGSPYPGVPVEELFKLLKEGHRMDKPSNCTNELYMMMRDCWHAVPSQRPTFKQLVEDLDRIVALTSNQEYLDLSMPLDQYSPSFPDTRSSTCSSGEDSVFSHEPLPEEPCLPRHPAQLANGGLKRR
Sequence of Fibroblast growth factor receptor 4 (P22455 whole entry, the tested form may be a part): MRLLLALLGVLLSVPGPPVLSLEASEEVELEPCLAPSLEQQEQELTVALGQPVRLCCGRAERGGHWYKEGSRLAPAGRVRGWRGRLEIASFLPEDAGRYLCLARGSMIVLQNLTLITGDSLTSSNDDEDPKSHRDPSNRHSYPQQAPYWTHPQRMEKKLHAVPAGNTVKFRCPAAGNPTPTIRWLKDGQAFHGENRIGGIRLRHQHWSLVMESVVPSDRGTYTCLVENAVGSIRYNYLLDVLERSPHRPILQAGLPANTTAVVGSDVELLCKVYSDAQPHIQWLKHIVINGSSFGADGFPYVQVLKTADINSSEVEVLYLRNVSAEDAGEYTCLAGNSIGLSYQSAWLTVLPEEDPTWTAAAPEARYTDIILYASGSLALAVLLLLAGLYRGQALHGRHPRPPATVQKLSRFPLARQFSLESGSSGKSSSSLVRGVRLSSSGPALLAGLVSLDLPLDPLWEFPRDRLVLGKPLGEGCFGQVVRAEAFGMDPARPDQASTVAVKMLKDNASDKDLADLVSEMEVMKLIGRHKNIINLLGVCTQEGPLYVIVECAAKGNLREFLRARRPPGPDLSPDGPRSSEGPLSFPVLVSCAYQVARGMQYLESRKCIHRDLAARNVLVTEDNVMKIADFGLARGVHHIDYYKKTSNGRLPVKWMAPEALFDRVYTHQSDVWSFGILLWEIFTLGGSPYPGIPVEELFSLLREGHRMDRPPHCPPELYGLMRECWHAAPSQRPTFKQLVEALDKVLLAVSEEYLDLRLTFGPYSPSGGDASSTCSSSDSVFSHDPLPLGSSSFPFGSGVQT

On to `C=CC(=O)N[C@@H]1COC[C@@H]1Nc1ncc(OCc2c(F)c(OC)cc(OC)c2F)cn1`, for which the IC50 in data set [1] was determined as 3.5 µM; in data set [2] it was 7.4 µM.
With `C=CC(=O)Nc1cccc(C)c1Nc1ncc(OCc2c(Cl)c(OC)cc(OC)c2Cl)cn1`, the remaining at 2 h, 2 µM in data set [3] is 0.2%.
Turning to `C=CC(=O)N[C@H]1CCOC[C@H]1Nc1ncc(OCc2c(F)c(OC)cc(OC)c2F)cn1`, the remaining at 2 h, 2 µM in data set [3] stood at 100%; in data set [5], 90%. Also, the results for the CLint scaled at 1 µM in data set [4] and in data set [6] were 564 mL/min/kg and 46 mL/min/kg, respectively. In data set [2], the IC50 was greater than 10 µM.
`C=CC(=O)Nc1cccc(C)c1Nc1ncc(OC(C)c2c(Cl)c(OC)cc(OC)c2Cl)cn1` (configuration not stated): the IC50 in data set [1] and in data set [2] was greater than 10 µM each time.
On to `C=CC(=O)Nc1cccc(C)c1Nc1ncc(OCc2cc(OC)cc(OC)c2)cn1`, for which the IC50 in data set [2] was greater than 10 µM.
For the compound `C=CC(=O)Nc1cc(N2CCN(CC)CC2)cc(C)c1Nc1ncc(OCc2c(F)c(OC)cc(OC)c2F)cn1`, in data set [3], the remaining at 2 h, 2 µM is 0.1%. Besides, the figures for the CLint scaled at 1 µM in data set [4] and in data set [6] were 180 mL/min/kg and 120 mL/min/kg, respectively. Further, the IC50 in data set [2] amounted to 2.9 µM.
As for `C=CC(=O)Nc1cc(N2CCN(C(C)=O)CC2)cc(C)c1Nc1ncc(OCc2c(F)c(OC)cc(OC)c2F)cn1`, the remaining at 2 h, 2 µM in data set [3] stood at 0.3%. Further, the CLint scaled at 1 µM was 220 mL/min/kg in data set [4] and 265 mL/min/kg in data set [6]. The IC50 in data set [2] was determined as 9.5 µM.
In the case of `C=CC(=O)N[C@H]1CCCC[C@H]1Nc1ncc(OCc2c(F)c(OC)cc(OC)c2F)cn1` (racemic), the remaining at 2 h, 2 µM in data set [3] and in data set [5] was 96% each time. For the same compound, the CLint scaled at 1 µM in data set [4] was 2030 mL/min/kg; in data set [6] it was 154 mL/min/kg. Besides, the IC50 in data set [2] worked out at 3.3 µM.
With `C=C(C)C(=O)Nc1cc(N2CCN(CC)CC2)cc(C)c1Nc1ncc(OCc2c(F)c(OC)cc(OC)c2F)cn1`, the remaining at 2 h, 2 µM in data set [3] came to 0.4%. Moreover, the IC50 in data set [2] turned out to be 4.8 µM.
Consider `C=CC(=O)Nc1ccccc1Nc1ncc(OCc2c(F)c(OC)cc(OC)c2F)cn1`, for which the IC50 in data set [2] turned out to be 0.06 µM.

For the origin of these results see ChEMBL document CHEMBL4017480, “Discovery and optimization of selective FGFR4 inhibitors via scaffold hopping” (Bioorg Med Chem Lett, 2017).
